Results on 1 compound are retold here after US20050100577A1, “Expandable medical device with beneficial agent matrix formed by a multi solvent system” (priority 2003, published 2005).

The conditions of data set [1]: cited from earlier work.
On data set [2], the source says:
A second drug, such as paclitaxel, which is soluble in anisole can be provided in the top layers. Therefore, the arrangement shown in FIG. 4 can include 2-CdA in the first therapeutic agent layer 60 and paclitaxel in the second therapeutic agent layer 70.

`Nc1nc(Cl)nc2c1ncn2[C@H]1C[C@H](O)[C@@H](CO)O1` [2-CdA, 2-chlorodeoxyadenosine]: the water solubility result in data set [1] is “about 4.5 mg/ml”. For the same compound, in data set [2], the “solubility in first solvent, DMSO” value was “very soluble” and the “solubility in second solvent, anisole” value is on record as “marginal solubility”.
